This is an account of results in article PMC12390126, “Human Skin Permeation of Ethoxy- and Propoxypropanol Commonly Found in Water-Based Products” (Toxics, 2025).

A short description of series [1]: In vitro static diffusion cell skin permeation (influence of water). It is filed as in vitro ADME, human. The note with it: static cells; 0, 25, 50 or 75% of water. From the text:
Human abdominal full thickness skin was obtained as surgical waste from the Lausanne University Hospital (CHUV) and the Department of Musculoskeletal Medicine (DAL) Biobank, Switzerland, according to the Swiss ethics in the canton Vaud (CER-VD: Commission cantonal d’éthique de la recherche sur l’être humain, ethical protocol 264/12). The surgeon obtained written consent from the patients before the start of the operation. The collected skin was anonymized, and only sex and age were provided for this study. Human skin was obtained directly after the surgery and immediately dermatomed to a thickness of 800 µm (Acculan®II, B. Braun/Aesculap, Sempach, Switzerland) to account for any potential storage effects on its in vitro mass balance. The experiments were run with triplicate skin samples (n = 3) from three different donors giving a total of nine samples for each experiment. The skin samples used for this study were stored at −20 °C for up to four years. […]
The concentrations of parent compounds were quantified by gas-chromatography tandem mass spectrometry (GC-MS/MS). […] The limits of detections (LODs) for PGEE and PGPE were 0.045 µg/mL and 0.035 µg/mL, respectively, and the limits of quantifications (LOQs) for PGEE and for PGPE were 0.135 µg/mL and 0.105 µg/mL, respectively. […]

Series [2] is described as follows: Workplace scenario: estimated internal dose and blood concentration after dermal exposure. The settings on record: 8 h. The arrangement: species or system human. As for the experimental part: The cumulative amount of PGEE and PGPE in the receptor fluid (µg/cm^2, y-axis) was plotted separately over time (hours, x-axis), and the permeability rate (J), the lag time (Tlag), and the permeability coefficient (Kp) were determined from the generated permeability curve. J (µg/cm^2/h) was calculated as the slope of the steepest linear part of the curve (apparent steady state), and Tlag (h) as its x-axis intercept. Kp (cm/h) was calculated by dividing J with the chemical concentration applied to the skin when diluted in water and with the glycol ether’s density when applied neat. The maximal internal dose in the bloodstream was estimated using the permeability rate obtained for the experiments and calculated as follows:IDmean = J [µg/cm^2/h] × SA [cm^2] × t [h] × P,(1) where IDmean is the mean internal dose of PGEE or PGPE after skin exposure, J is the experimental permeability rate, SA represents the surface area exposed to the solvent, t is the time of exposure, and P represents the average percentage of PGEs in commercialized products. We used the J from the aqueous experiments because PGEs are mostly present in water-based products. The surface area exposed was set to 10.4 cm^2 for the hands alone, and 14.2 cm^2 when including the forearms. The total blood volume used for the blood concentration calculation was 5 L [29]. In Switzerland, paint products on the market for both professional and consumer uses contain, on average, 22.3% of PGEE and/or 5.9% of PGPE [17].
Recreating a workplace scenario, the mean internal dose after one workday for a worker in contact with products containing PGEE or PGPE was estimated based on our results. Mixing tasks are common in companies that use paint products, such as those in the construction and car repair industries. This task usually involves opening containers and mixing large quantities of paint. Workers’ hands, and occasionally forearms, are often contaminated by paint splashes and contact with various painting equipment. Based on our in vitro results and assuming dermal exposure only, after one 8 h workday, with a SA of 10.4 cm^2 and PGEs content of either 22.3% or 5.9%, the mean estimated internal dose for a worker performing a paint mixing task without wearing gloves is 8.3 mg of PGEE (see Equation (1)). This corresponds to a blood concentration of 1.7 mg/L. Under the same conditions, if the worker is exposed to products containing PGPE, the mean estimated internal dose after one workday is 0.9 mg, corresponding to a blood concentration of 0.2 mg/L. The addition of water to the mixture, for example, from perspiration or from the water-based product itself, increases the estimated internal dose to 19.9 mg (3.9 mg/L) for PGEE exposure and 4.1 mg (0.8 mg/L) for PGPE exposure. Some paint products may contain both PGEs mixed with other chemical substances; however, mixtures were not considered in this scenario. Further studies are necessary to investigate the effects of chemical mixtures on glycol ether skin permeation. Furthermore, PGEE and PGPE are volatile organic compounds, so workers can be exposed not only through direct skin contact but also via skin vapor absorption through the skin or inhalation. Therefore, the blood concentrations estimated in our workplace scenario would likely be higher under real working conditions involving all routes of absorption. Since no biological reference values are currently available for these compounds, it is not possible to estimate the potential risks associated with exposure at these blood concentrations. However, due to the high skin permeation of these compounds, workers and consumers must wear appropriate protective equipment to limit their exposure.

Where [3] appears, read: SA 10.4 cm^2, content 22.3% PGEE or 5.9% PGPE, blood volume 5 L, no added water.
The mark [4] stands for this setting: SA 10.4 cm^2, content 22.3% PGEE or 5.9% PGPE, dermal only, no added water.
[5] abbreviates: with addition of water to the mixture, SA 10.4 cm^2, 22.3% PGEE or 5.9% PGPE.

Turning to `CCOCC(C)O` (stereo not drawn) [PGEE], the “mean cumulative amount in receptor fluid after 24 h: trend with percentage of water” value in series [1] is listed as “increased with the percentage of water in the applied mixture”. Also, in series [2] (setting [3]), the estimated blood concentration is recorded as 1.7 mg/L. Besides, the “mean estimated internal dose after one workday” value was 8.3 mg in series [2] (setting [4]) and 19.9 mg in series [2] (setting [5]).

Regarding `CCCOCC(C)O` (stereo not drawn) [PGPE, propoxypropanol], the “mean cumulative amount in receptor fluid after 24 h: trend with percentage of water” value in series [1] is recorded as “reached a maximum when diluted with 25 % water (75:25), followed by a decrease at higher water concentrations”. Also, the estimated blood concentration in series [2] (setting [3]) is 0.2 mg/L; in series [2] (with addition of water to the mixture, SA 10.4 cm^2, blood volume 5 L) it was 0.8 mg/L. The results for the “mean estimated internal dose after one workday” value in series [2] (setting [4]) and in series [2] (setting [5]) were 0.9 mg and 4.1 mg, respectively.
